Results as given in patent US20240247026A1, “SALTS AND CRYSTALLINE FORMS OF (3E) 3-[O-[(PHOSPHONOOXY)METHYL]OXIME]-PREGN-4-ENE-3,20-DIONE AND RELATED USES” (NeuroTrauma Sciences LLC, priority 2021, published 2024).
Entries after “also recorded” stand apart in the source; their conditions may differ.

Key:
[1] = Primary salt screen: XRPD re-analysis after drying at 40° C. and after storage at 40° C./75% RH; assay type: physicochemical; details: for Remained pattern after 40° C.: dried at 40° C. for ca. two days; for Remained pattern after 40° C./78% RH: stored for ca. 24 h
Experimental: Salt crystallization screening was carried out as follows. Ca. […] The experiments were temperature cycled between ambient and 40° C. in 4 hour cycles for ca. 72 h. […] The solids were then isolated via centrifuge filter and analyzed by XRPD. Selected salts were dried at 40° ° C. for ca. two days and re-analyzed by XRPD. The salts were also characterized by TG/DSC and ^1H NMR.

[2] = One week (7-day) stability testing, HPLC purity and XRPD form; details: for Loss in purity, one week stability: open vial
Experimental: After one week the solids were analyzed by XRPD for physical stability and HPLC for purity.
Seven day stability testing was carried out for Form III at 40° C./75% RH and ambient in open vials. 80° C. was carried out in an open 2 mL vial within a closed 20 mL vial.
The crystalline Bis-Sodium Pattern 3 material underwent 7-day stability tests at 40° C./75% RH (open vial); at ambient temperature, light and humidity (open vial) and 80° C. (sealed vial), with post-stability storage XRPD and HPLC analysis. The solubility of the bis-sodium pattern 3 salt was assessed.

[3] = Dynamic vapour sorption (DVS); assay type: physicochemical
Experimental: Dynamic Vapour Sorption (DVS). Approximately 10-20 mg of sample was placed into a mesh vapour sorption balance pan and loaded into a DVS Advantage dynamic vapour sorption balance by Surface Measurement Systems. The sample was subjected to a ramping profile from 40-90% relative humidity (RH) at 10% increments, maintaining the sample at each step until a stable weight had been achieved (dm/dt 0.004%, minimum step length 30 minutes, maximum step length 500 minutes) at 25° C. After completion of the sorption cycle, the sample was dried using the same procedure to 0% RH and then a second sorption cycle back to 40% RH. Two cycles were performed. The weight change during the sorption/desorption cycles were plotted, allowing for the hygroscopic nature of the sample to be determined. XRPD analysis was then carried out on any solid retained.

[4] = Thermodynamic solubility studies in pH buffers; details: shaken at ambient ca. 24 h
Experimental: Ca. 6 mg of the salt was weighed into a 2 mL vial and 50 μL aliquots of pH 7.4 PBS was added until dissolution was obtained. […] The preparations were analyzed by XRPD, PLM, TG/DSC, DSC, DVS, FTIR, ^1H and ^31P NMR and HPLC purity. One week stability testing was carried out, salt disproportionation and hydration studies and thermodynamic solubility.
Salt disproportionation and hydration studies were carried out as follows: Ca. 30 mg of each salt was suspended in 400 μL of the solvent systems shown in and shaken at ambient for ca. 24 h. Thermodynamic solubility studies were carried out as follows: Ca. 30 mg of each salt was suspended in 400 μL of the solvent systems shown in and shaken at ambient for ca. 24 h.

[5] = Salt disproportionation and hydration studies; assay type: physicochemical; details: ambient, ca. 24 h; for Hydration studies, outcome: 3 water activities; for Disproportionation experiment, outcome: water
[6] = 80° C., listed as N-(hydroxyethyl)pyrrolidine Pattern 2
[7] = listed as N-(hydroxyethyl)pyrrolidine Pattern 2

Q: Which “Remained pattern after 40° C.” value [1] does the source give for `NCCO` [Ethanolamine] here?
A: The value was “Yes”.

Q: With `CC(=O)C1CCC2C3CCC4=CC(=NOCOP(=O)(O)O)CCC4(C)C3CCC12C.NC(CO)(CO)CO` (stereo not shown) [Form III] as the compound, how does the “XRPD form after one week stability” value ([2]; 80° C.) read?
A: Its value is “Form IV”.

Q: Which “Loss in purity, one week stability” value ([2]; 40° C./75% RH) does the source give for `CC(=O)[C@H]1CC[C@H]2[C@@H]3CCC4=CC(=NOCOP(=O)(O)O)CC[C@]4(C)[C@H]3CC[C@]12C.OCCN1CCCC1.OCCN1CCCC1` [Form V] here?
A: The value was “No loss in purity”.

Q: What about the “Loss in purity, one week stability” value ([2]; 40° C./75% RH, listed as N-(hydroxyethyl)pyrrolidine Pattern 2) of the same compound?
A: The value was “No loss in purity at ambient”.

Q: And the “Decrease in purity, one week stability” value ([2]; 80° C.)?
A: Its value is 0.9 % Area.

Q: And the “XRPD form after one week stability” value ([2]; 80° C.)?
A: The value was “some minor changes”.

Q: What about the “Decrease in purity, one week stability” value [2, 6] of the same compound?
A: Its value is “& 40° C./75% RH. 0.9% Area”.

Q: And the “XRPD form after one week stability” value [2, 6]?
A: The value was “minor changes at 80 °C”.

Q: What about the “XRPD form after one week stability” value ([2]; all conditions tested) of the same compound?
A: The value was “Form V remained; also recorded: remain unchanged”.

Q: And the “XRPD form after one week stability” value ([2]; all conditions tested, listed as N-(hydroxyethyl)pyrrolidine Pattern 2)?
A: Its value is “Remained Pattern 2, some”.

Q: What about the “Loss in purity, one week stability” value ([2]; ambient light and temperature) of the same compound?
A: Its value is “No loss in purity”.

Q: And the “Loss in purity, one week stability” value ([2]; ambient light and temperature, listed as N-(hydroxyethyl)pyrrolidine Pattern 2)?
A: Its value is “No loss in purity at ambient”.

Q: What about the “Post DVS XRPD form” value [3] of the same compound?
A: The value was “remain unchanged”.

Q: What about the DVS hygroscopic nature ([3]; 25° C.) of the same compound?
A: Its DVS hygroscopic nature is “hygroscopic”.

Q: What about the “DVS total uptake at 90% RH” value ([3]; 25° C.) of the same compound?
A: The value was 19.0%.

Q: And the “DVS total uptake at 90% RH as equivalents of water” value ([3]; 25° C.)?
A: Its value is 7.3 equivalents of water.

Q: What about the “DVS uptake between 40% RH and 90% RH” value ([3]; 25° C.) of the same compound?
A: Its value is 17.8%.

Q: What about the “DVS uptake between 40% RH and 90% RH” value ([3]; 25° C., listed as N-(hydroxyethyl)pyrrolidine Pattern 2) of the same compound?
A: The value was 17.8% uptake between 40 &.

Q: And the Solubility ([4]; pH 7.4)?
A: Its Solubility is greater than 45 mg/mL.

Q: What about the Solubility ([4]; pH 8) of the same compound?
A: Its Solubility is greater than 39 mg/mL.

Q: What about the Solubility ([4]; pH 8.5) of the same compound?
A: Its Solubility is greater than 39 mg/mL.

Q: And the “Remained pattern after 40° C.” value [1]?
A: Its value is “Yes”.

Q: And the “Remained pattern after 40° C./78% RH” value [1]?
A: The value was “Yes”.

Q: And the “Hydration studies, outcome” value [5]?
A: Its value is “Solutions were obtained; also recorded: no solids after 24 h”.

Q: And the “Hydration studies, outcome” value [5, 7]?
A: The value was “Solutions obtained”.

Q: And the “Disproportionation experiment, outcome” value [5]?
A: The value was “Solutions were obtained; also recorded: no solids after 24 h”.

Q: And the “Disproportionation experiment, outcome” value [5, 7]?
A: The value was “Solutions obtained”.

Q: Which results are given for `CCNC[C@H](O)[C@@H](O)[C@H](O)[C@H](O)CO` [N-ethyl glucamine]?
A: Remained pattern after 40° C. [1]: Yes; Remained pattern after 40° C./78% RH [1]: No. Mixture

Q: With `[K+]` [Potassium] as the compound, how does the “Remained pattern after 40° C.” value [1] read?
A: The value was “Yes”.

Q: And the “Remained pattern after 40° C./78% RH” value [1]?
A: The value was “No - Pattern 5”.

Q: What about the “Remained pattern after 40° C./78% RH” value ([1]; listed as potassium Pattern 1) of the same compound?
A: Its value is “Pattern 5”.

Q: Which results are given for `CC(=O)[C@H]1CC[C@H]2[C@@H]3CCC4=CC(=NOCOP(=O)([O-])[O-])CC[C@]4(C)[C@H]3CC[C@]12C.[Na+].[Na+]` [Sodium Pattern 3]?
A: Decrease in purity, one week stability ([2]; 80° C.): Large drop in purity at 80 °C; XRPD form after one week stability ([2]; 80° C.): 40° C./75% RH, Pattern 5; Decrease in purity, one week stability ([2]; 80° C., listed as sodium salt Pattern 3): large drop in purity; XRPD form after one week stability ([2]; all conditions tested): form conversion; Solubility ([4]; pH 7.4): <12 mg/mL at pH 7.4
